Reference: patent US8895599B2, “Lipoprotein lipase-activating compositions comprising benzene derivates” (Otsuka Pharmaceutical Factory, Inc., priority 2008, dated 2014)

| Structure (SMILES) | melting point [°C] |
| --- | --- |
| COc1cc(-c2nc3ccccn3c2C)ccc1OCc1ccccc1.Cl | 241 to 243 |
| COc1cc(-c2cn3ccccc3n2)ccc1O.Cl | 276 to 278 |
| COc1cc(-c2nc3sccn3c2C)ccc1OCc1ccccc1.Cl | 228 to 230 |
| COc1cc(-c2nc3ccccn3c2Cl)ccc1OCc1ccccc1 [Example 2] | 103 to 104 |
| COc1cc(-c2nc3ccccn3c2Br)ccc1OCc1ccccc1 [Example 3] | 115 to 117 |
| COc1cc(-c2cn3ccccc3n2)ccc1OCc1ccc(F)cc1 [Example 6] | 144 to 146 |
| COc1cc(-c2cn3ccccc3n2)ccc1OCc1ccc(C(F)(F)F)cc1 [Example 7] | 172 to 173 |
| COc1cc(-c2cn3ccccc3n2)ccc1OCc1cc(F)ccc1C(F)(F)F [Example 8] | 125 to 126 |
| COc1cc(-c2cn3ccccc3n2)ccc1OCc1ccc(C)cc1 [Example 9] | 155 to 157 |
| COc1cc(-c2cnc3ccccn23)ccc1OCc1ccccc1 [Example 12, 3-(4-benzyloxy-3-methoxyphenyl)imidazo[1,2-a]pyridine] | 129 to 131 |
| c1ccc(COc2ccc(-c3cn4ccccc4n3)cc2)cc1 [Example 13] | 171 to 173 |
| COc1cc(-c2cn3cc(C)ccc3n2)ccc1OCc1ccccc1 [Example 15] | 135 to 136 |
| COc1cc(-c2cn3ccc(C)cc3n2)ccc1OCc1ccccc1 [Example 16] | 171 to 173 |
| COc1cc(-c2cn3cc(C(F)(F)F)ccc3n2)ccc1OCc1ccccc1 [Example 17] | 172 to 173 |
| COc1cc(-c2cn3cc(Cl)ccc3n2)ccc1OCc1ccccc1 [Example 18] | 177 to 179 |
| COc1cc(-c2nc3ccccn3c2Cl)ccc1OCc1ccc(Cl)cc1 [Example 19] | 139 to 140 |
| COc1cc(-c2nc3ccccn3c2Cl)ccc1OCc1cccc(F)c1 [Example 20] | 104 to 105 |
| COc1cc(-c2cn3ccccc3n2)ccc1OCc1cccc(Cl)c1 [Example 21] | 114 to 115 |
| COc1cc(-c2cn3ccccc3n2)ccc1OCc1ccc(Cl)c(Cl)c1 [Example 22] | 138 to 139 |
| COc1cc(-c2cn3ccsc3n2)ccc1OCc1ccccc1 [Example 24] | 130 to 132 |
| COc1cc(-c2nc3ccccn3c2C)ccc1OCc1ccc(Cl)cc1 [Example 26] | 114 to 115 |

Continued, values first:

| melting point [°C] | Structure (SMILES) |
| --- | --- |
| 118 to 120 | COc1cc(-c2nc3ccccn3c2C)ccc1OCc1ccc(C)cc1 [Example 27] |
| 168 to 169 | COc1cc(-c2cn3cccnc3n2)ccc1OCc1ccccc1 [Example 28, 2-(4-benzyloxy-3-methoxyphenyl)imidazo[1,2-a]pyrimidine] |
| 216 to 218 | COc1cc(-c2cn3cccnc3n2)ccc1OCc1ccc(Cl)cc1 [Example 29] |
| 136 to 137 | COc1cc(-c2cn3ccccc3n2)ccc1OCc1ccc(Br)cc1 [Example 31] |
| 140 to 142 | COc1cc(-c2cn3cc(C)ccc3n2)ccc1OCc1ccc(Cl)cc1 [Example 32] |
| 130 to 132 | COc1cc(-c2cn3c(C)cccc3n2)ccc1OCc1ccccc1 [Example 33] |
| 99 to 100 | COc1cc(-c2cn3cccc(C)c3n2)ccc1OCc1ccccc1 [Example 34] |
| 165 to 167 | COc1ccc(COc2ccc(-c3cn4ccccc4n3)cc2OC)cc1 [Example 35] |
| 215 to 218 | COc1ccc(COc2ccc(-c3cn4ccccc4n3)cc2)cc1 [Example 36] |
| 229 to 231 | Clc1ccc(COc2ccc(-c3cn4ccccc4n3)cc2)cc1 [Example 37] |
| 197 to 200 | COc1cc(-c2cn3ccccc3n2)ccc1OCc1ccc([N+](=O)[O-])cc1 [Example 38] |
| 123 to 124 | Cc1cc(-c2cn3ccccc3n2)ccc1OCc1ccccc1 [Example 39] |
| 239 to 240 | O=C(O)c1cc(-c2cn3ccccc3n2)ccc1OCc1ccccc1 [Example 40] |
